Test results as given in US5157019A, “Serine protease inhibitors” (Monsanto Company, priority 1991, dated 1992).
Ends that are not written are not given here.

Experiments:
Thrombin = Thrombin (Homo sapiens, UniProt P00734); assay: Coagulation inhibition assay, thrombin (fibrinogen clotting end point); format: biochemical; details: 40 μM peptide
Protocol: Inhibitory activity of subject peptides toward thrombin and Factor Xa were done in the following manner. Mix 100 μL Thrombin (3.125 units/ml, 1.125 μg/ml) in TAB with […] Peptide in TAB and incubate for 1 minute at 37° C. Add 50 μL Fibrinogen (2 mg/ml)and measure clotting end point (in seconds) in a Fibrometer (BBL) TAB=Thrombin Assay Buffer: 0.15M NaCl, 6.6 gm/L PEG-6000, 0.01M Imidazole, 0.01 CaCl2, pH 7.4

Plasmin = Plasmin (Homo sapiens, UniProt P00747); assay: Plasmin assay (S2251); format: biochemical; details: 200 μM peptide
Sequence of Plasmin (P00747 581-810 limits assumed): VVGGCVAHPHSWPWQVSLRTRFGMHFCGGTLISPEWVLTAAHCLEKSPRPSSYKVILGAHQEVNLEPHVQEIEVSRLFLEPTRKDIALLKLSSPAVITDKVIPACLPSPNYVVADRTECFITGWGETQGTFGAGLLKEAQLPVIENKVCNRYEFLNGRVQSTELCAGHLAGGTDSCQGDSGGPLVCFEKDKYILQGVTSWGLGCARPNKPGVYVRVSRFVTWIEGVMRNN
Sequence of Plasmin (P00747 97-580 partner limits assumed): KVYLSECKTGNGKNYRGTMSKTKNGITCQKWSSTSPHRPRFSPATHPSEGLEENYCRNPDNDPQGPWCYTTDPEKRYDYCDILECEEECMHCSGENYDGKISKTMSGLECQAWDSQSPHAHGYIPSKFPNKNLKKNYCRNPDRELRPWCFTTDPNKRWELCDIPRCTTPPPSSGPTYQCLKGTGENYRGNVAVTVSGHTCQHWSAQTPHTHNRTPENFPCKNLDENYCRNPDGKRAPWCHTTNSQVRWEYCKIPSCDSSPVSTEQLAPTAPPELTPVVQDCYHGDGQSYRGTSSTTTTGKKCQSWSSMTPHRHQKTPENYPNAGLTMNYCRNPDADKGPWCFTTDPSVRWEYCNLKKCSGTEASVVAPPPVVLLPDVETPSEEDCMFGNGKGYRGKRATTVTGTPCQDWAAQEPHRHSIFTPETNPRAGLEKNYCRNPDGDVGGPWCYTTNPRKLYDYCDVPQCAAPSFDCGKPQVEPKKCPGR
Protocol: Substrate H-D-Val-Leu-Lys-pNA·HCl (S2251, Kabi), 10 mM in deionized water; may be frozen for future use.
Buffer 50 mM Tris·HCl, pH 7.4 containing 0.01% Tween 80
Inhibitor 400 μM in deionized water
Enzyme Plasmin; 0.5 U/ml in buffer (Cat #P-4895, Sigma Chemical Co., St. Louis, Mo.)
Mix 220 μL buffer, 200 μL deionized water (control) or inhibitor solution and 40 μL substrate. Incubate for 2 min at 37° C. Transfer 230 μL to a microcuvette, add 40 μL of enzyme, mix, and measure rate spectrophotometrically at 405 nm for about 5 min. Inhibition (%) is calculated in the same manner as in previous assays.

Cathepsin G = target: T1, Cathepsin G (Homo sapiens, UniProt P08311); assay: Cathepsin G assay (Suc-Ala-Ala-Pro-Phe-pNA, 410 nm); format: biochemical; details: for inhibition at 100 µM / Cathepsin G % inhibition: 100 μM peptide (Tables VI, VIII); for inhibition at 200 µM / Cathepsin G Inhibition: 200 μM peptide (head of Table IX)
T1 construct: purchased Elastin Products Company (EPC) SG-45
T1 sequence (P08311 21-255): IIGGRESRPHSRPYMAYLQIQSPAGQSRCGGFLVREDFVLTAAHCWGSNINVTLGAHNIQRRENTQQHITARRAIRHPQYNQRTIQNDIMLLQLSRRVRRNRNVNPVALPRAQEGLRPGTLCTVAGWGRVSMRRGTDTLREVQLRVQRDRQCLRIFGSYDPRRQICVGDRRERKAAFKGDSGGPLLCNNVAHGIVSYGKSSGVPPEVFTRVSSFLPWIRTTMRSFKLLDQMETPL
Protocol: Reference: Elastin Products Company (EPC) technical data sheet, cathepsin G, No. SG-45.
Method: Spectrophotometric rate determination
A) Buffer; 0.1M Tris, pH 7.5 at 25° C.
B) Substrate; 60 mM Suc-Ala-Ala-Pro-Phe-pNA obtained from Sigma Chemical Company. Solution prepared by dissolving 50 mg substrate in 1.3 ml of 1-methyl-2-pyrrolidinone. Stored at 5° C.
C) Peptide Inhibitors; 200 μM HCl salt. Depending on peptide solubility, dissolved in buffer or DMSO and then buffer added for a final concentration of 10% DMSO.
D) Enzyme; Cathepsin G, EPC SG-45, lot 85117 used for all assays, 0.0077 mg protein per mg solid determined by supplier by Bradford method. Enzyme was dissolved in buffer at a concentration of approx. 5 mg/ml solid. Solution stored on ice, used within 2 hours.
Pipetted the following into semi-micro quartz cuvettes: 0.3 ml buffer, 0.15 ml peptide solution and 0.5 ml of substrate solution. Equilibrate for 5 min. at 25° C., then add 0.05 ml of enzyme solution and monitor the release of pNA spectrophotometrically at 410 nm for at least 3 minutes. The controls contain either 0.45 ml of buffer or 20% DMSO in buffer (for a final concentration of 10% DMSO).
The rate (O.D./min) is obtained as an average over 3 minutes. [formula]

Factor Xa = Factor Xa (Homo sapiens, UniProt P00742); assay: Coagulation inhibition assay, Factor Xa (clotting of Factor X deficient plasma); format: biochemical; details: 40 μM peptide
Sequence of Factor Xa (P00742 235-488 limits assumed): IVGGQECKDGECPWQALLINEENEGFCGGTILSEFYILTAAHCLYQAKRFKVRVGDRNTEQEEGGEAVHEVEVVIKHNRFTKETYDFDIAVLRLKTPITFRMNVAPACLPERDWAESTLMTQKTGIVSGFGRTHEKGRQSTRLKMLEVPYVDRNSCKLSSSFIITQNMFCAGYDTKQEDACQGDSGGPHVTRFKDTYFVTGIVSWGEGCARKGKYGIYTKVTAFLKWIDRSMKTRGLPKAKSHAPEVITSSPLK
Sequence of Factor Xa (P00742 41-179 partner limits assumed): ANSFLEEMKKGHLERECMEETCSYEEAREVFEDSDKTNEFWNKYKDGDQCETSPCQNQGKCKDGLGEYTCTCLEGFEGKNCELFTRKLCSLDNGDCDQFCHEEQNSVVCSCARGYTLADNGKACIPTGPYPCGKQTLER
Protocol: Inhibitory activity of subject peptides toward thrombin and Factor Xa were done in the following manner.
Mix 50 μL Factor Xa (0.1 μg/ml) in TBSA with 100 μL Peptide in TBSA and 50 μL CaCl2 25 mM and incubate for 1 minute at 37° C. Add 50 μL Factor X deficient plasma/RBC (10/1) and measure clotting end point (in seconds) in a Fibrometer (BBL)
TBSA=Tris-Saline with Bovine Serum Albumin: 0.1M NaCl,0.05 M Tris-HCl, 1 mg/ml BSA, 0.1% NaN3
Factor X deficient plasma: George King Biomedical (GK 1004) RBC=Rabbit Brain Cephalin: Sigma Chemical Co. St. Louis, Mo.

complement activation = assay: Reverse passive arthus reaction (RPAR), histopathology of injection sites; format: in vivo, guinea pigs; set-up: key: 0 indicating no acute inflamation; 1 indication minimal acute inflammation; 2 indicating mild acute inflammation; 3 indicating moderate acute inflammation; details: guinea pig, intradermal injection of peptide without antibody
Protocol: These exemplary peptide inhibitors (peptides 13, 7 and 27) were assayed for in vivo activity in inhibiting complement activation using the reverse passive arthus reaction (RPAR). RPAR is a model of complement-mediated damage due to activation via interaction with antigen/antibody complexes. Female guinea pigs (400 gm) were pretreated intracardially with bovine serum albumin and Evans blue dye. Ninety minutes later they received bilateral intradermal injections of peptide inhibitor or control material in the thoracolumbar region. Injection sites were excised postmortem and fixed in 10% buffered formalin for pathological evaluation. The peptides were administered to obtain an initial level of […] in the circulatory system.
The histopathological results are outlined below. The degree of inflammation was scored as follows: 0 indicating no acute inflamation; 1 indication minimal acute inflammation; 2 indicating mild acute inflammation; and 3 indicating moderate acute inflammation.

Plasma Kallikrein = target: T2, Plasma Kallikrein (Homo sapiens, UniProt P03952); assay: Plasma kallikrein assay (Chromozym PK); format: biochemical; details: for Kallikrein % inhibition: 50 μM peptide; for inhibition at 100 µM: 100 μM peptide
T2 construct: purchased Sigma K-3126
T2 sequence (P03952 20-638): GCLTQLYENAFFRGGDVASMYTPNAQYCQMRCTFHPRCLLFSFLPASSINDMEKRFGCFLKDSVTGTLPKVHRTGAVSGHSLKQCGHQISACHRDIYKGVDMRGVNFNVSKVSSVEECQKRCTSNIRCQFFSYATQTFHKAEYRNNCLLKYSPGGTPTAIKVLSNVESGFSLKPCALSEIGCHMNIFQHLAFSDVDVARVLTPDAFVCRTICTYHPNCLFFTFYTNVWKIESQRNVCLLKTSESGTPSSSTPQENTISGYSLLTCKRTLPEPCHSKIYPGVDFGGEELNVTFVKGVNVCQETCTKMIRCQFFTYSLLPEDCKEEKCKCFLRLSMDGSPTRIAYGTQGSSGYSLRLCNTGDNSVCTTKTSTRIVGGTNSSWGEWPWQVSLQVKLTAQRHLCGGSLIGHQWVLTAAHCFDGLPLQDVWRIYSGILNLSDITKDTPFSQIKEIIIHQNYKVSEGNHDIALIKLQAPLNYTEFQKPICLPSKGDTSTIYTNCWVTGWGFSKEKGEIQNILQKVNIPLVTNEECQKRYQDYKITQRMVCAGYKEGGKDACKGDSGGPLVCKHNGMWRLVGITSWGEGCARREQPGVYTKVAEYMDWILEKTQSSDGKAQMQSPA
Protocol: Buffer 150 mM Tris·HCl, pH 8.0
Substrate Benzyl-Pro-Phe-Arg-pNa (Chromozym PK, Boeringer Mannheim), 10 mM in deionized water.
Enzyme Plasma Kallikrein (Sigma, K-3126), 0.0312 μ/ml. Used undiluted.
Inhibitor Dissolved at desired concentrations in deionized water or DMSO plus deionized water depending on solubility.
4. Incubate mixture for 5 min at 25° C.
6. Measure rate spectrophotometrically at […] at 25° C.
2. Add appropriate volume of peptide solution
3. Add adjusted volume of buffer compensating for volume of peptide solution.
4. Add an adjusted volume of DMSO to maintain a final amount of 25 μl in the assay
5. Incubate mixture for 5 min at 25° C.
7. Measure rate spectrophotometrically at […] at 25° C.
Inhibition (%) is calculated in the same manner as in previous assays.

Molecule	inhibition at 40 µM (Thrombin) [%]	inhibition at 200 µM (Plasmin) [%]	inhibition at 100 µM (Cathepsin G) [%]	inhibition at 200 µM (Cathepsin G) [%]	inhibition at 40 µM (Factor Xa) [%]	Degree of inflammation, mean score, protease inhibitor only (complement activation)	Thrombin inhibition (Thrombin) [%]	Plasmin % inhibition (Plasmin) [%]	Kallikrein % inhibition (Plasma Kallikrein) [%]	Cathepsin G % inhibition (Cathepsin G) [%]	Cathepsin G Inhibition (Cathepsin G) [%]	Factor Xa % inhibition (Factor Xa) [%]	inhibition at 100 µM (Plasma Kallikrein) [%]
CC[C@H](C)[C@H](NC(=O)[C@H](CC(C)C)NC(=O)[C@H](Cc1ccccc1)NC(=O)[C@@H](NC(=O)[C@H](Cc1ccccc1)NC(=O)[C@@H]1CCCN1C(=O)[C@H](CCCCN)NC(=O)[C@H](CC(N)=O)NC(=O)[C@H](Cc1ccccc1)NC(=O)[C@H](CCCCN)NC(=O)[C@@H](NC(=O)[C@H](CCC(=O)O)NC(=O)[C@@H]1CCCN1C(=O)[C@@H]1CCCN1)C(C)C)C(C)C)C(=O)O [Peptide 1]	0	37	0	0	31	–	–	–	–	–	–	–	–
IVRFNRPFLLII [Peptide 3]	50	33	32	32	73	–	–	–	–	–	–	–	–
PNRVTFKANRPFLVFI [Peptide 2]	–	33	13	13	51	–	–	–	–	–	–	–	21
VKFNKPFVFLLIEQNTKSPLFLGKVVNPTQK [Peptide 20]	–	–	–	–	–	–	71	43	0	0	0	87	–

Results, then the molecule that gave them:

inhibition at 40 µM (Thrombin) [%]	inhibition at 200 µM (Plasmin) [%]	inhibition at 100 µM (Cathepsin G) [%]	inhibition at 200 µM (Cathepsin G) [%]	inhibition at 40 µM (Factor Xa) [%]	Degree of inflammation, mean score, protease inhibitor only (complement activation)	Thrombin inhibition (Thrombin) [%]	Plasmin % inhibition (Plasmin) [%]	Kallikrein % inhibition (Plasma Kallikrein) [%]	Cathepsin G % inhibition (Cathepsin G) [%]	Cathepsin G Inhibition (Cathepsin G) [%]	Factor Xa % inhibition (Factor Xa) [%]	inhibition at 100 µM (Plasma Kallikrein) [%]	Molecule
97	–	–	52	–	1	–	–	–	–	–	–	–	AGRSLNPNRVTFKANRPFLVFIREVPLNTIIFLGRVANP [Peptide 27]
–	–	–	–	–	–	90	56	58	46	46	97	–	IVRFNRPFLLIIVPTDTQNIFFLSKVTNPSKPR [Peptide 22]
97	53	38	38	99	–	–	–	–	–	–	–	55	RVTFKANRPFLVFIREVPLNTIIFLGRVANP [Peptide 21]
